US20250340532A1, “HETEROCYCLIC COMPOUND CCR4 INHIBITOR AND USER THEREOF” (Xizang Haisco Pharmaceutical Co., Ltd., priority 2022, published 2025)
Blank lines part the entries; values can stand above or below the compound they belong to.

What was measured:
[1] = Pharmacokinetic test in rats; format: in vivo, SD rats; details: for AUC / clearance / Vd: male, SD, rat, plasma; for Vd: read-out: Vdss
Experimental: 1.1 Experimental animals: male SD rats, about 220 g, 6-8 weeks old, 6 rats/compound. Purchased from Chengdu Ddossy Experimental Animals Co., Ltd.
1.2 Experimental design: on the day of the experiment, 36 SD rats were randomly grouped according to their body weights. The animals were fasted with water available for 12 to 14 h one day before the administration and were fed 4 h after the administration.
(§1) Before and after the administration, 0.15 ml of blood was taken from the orbit of the animals under isoflurane anesthesia and placed in an EDTAK2 centrifuge tube. The blood was centrifuged at 5000 rpm and 4° C. for 10 min to collect plasma. The blood collection time points for the intravenous administration group and intragastric administration group were: 0, 5 min, 15 min, 30 min, 1 h, 2 h, 4 h, 6 h, 8 h and 24 h. Before analysis and detection, all samples were stored at −80° C., and a quantitative analysis of samples was performed using LC-MS/MS.

[2] = target: T1, CCR4 (Homo sapiens, UniProt P51679); experiment: Calcium flow detected by FLIPR; format: cell-based; details: CCR4/HEK293 cells, agonist CCL17, Fluo-4 calcium signal
T1 construct: expressed in transfected cells; host or cells: HEK293
T1 sequence (P51679 1-360): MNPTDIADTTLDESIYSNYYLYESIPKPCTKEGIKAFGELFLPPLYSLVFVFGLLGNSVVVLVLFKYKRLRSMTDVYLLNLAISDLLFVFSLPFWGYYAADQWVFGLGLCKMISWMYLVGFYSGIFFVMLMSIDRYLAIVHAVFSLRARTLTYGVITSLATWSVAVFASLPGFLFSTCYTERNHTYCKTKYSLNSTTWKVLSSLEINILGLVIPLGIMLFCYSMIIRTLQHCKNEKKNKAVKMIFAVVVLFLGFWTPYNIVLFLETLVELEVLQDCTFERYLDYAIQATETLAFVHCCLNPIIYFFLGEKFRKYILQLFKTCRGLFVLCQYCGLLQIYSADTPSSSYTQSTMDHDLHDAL
Experimental: CCR4/HEK293 cells were added to a 384-well cell culture plate (Greiner #781946) at a rate of 20 μL/well (20,000 cells/well) and incubated overnight in a 37° C., 5% CO2 incubator (Incubator, Thermo). On the second day, the 384-well cell culture plate was taken out of the incubator and the culture medium was removed; Then, 20 μL of detection buffer and 20 μL of 2X Fluo-4 Direct™ (Invitrogen, Cat #F10471) were added. Then, compounds were added at 10 μL/well (compounds were subjected to 4-fold serial dilution, and the highest detection concentration was 10 μM), and the cells were incubated in a 37° C., 5% CO2 incubator for 50 min, and then incubated at room temperature for 10 min. The 384-well culture plate was placed in FLIPR ([…]), 10 μL of 6X agonist CCL17 was added by using an automatic loader, and the fluorescence signal was read immediately. The mean and standard error (Mean±SEM) were statistically analyzed using Graphpad Prism software, and the IC50 value was calculated.
The experimental results are shown in Table 3, where A represents IC50<100 nm; B represents 100 nM≤IC50<500 nM, and C represents 500 nM≤IC50.

[3] = Pharmacokinetic test in monkeys; format: in vivo, cynomolgus monkeys; details: for AUC(0-t) / clearance / Vd: male, cynomolgus monkey, plasma; for Vd: read-out: Vdss
Experimental: Experimental animals: Male cynomolgus monkeys, 3-5 kg, 3-6 years old, 4 monkeys/compound. purchased from Suzhou Xishan Biotechnology Inc.
Experimental method: On the day of the experiment, 8 monkeys were randomly grouped according to their body weights. The animals were fasted with water available for 14 to 18 h one day before the administration, and were fed 4 h after the administration.
Before and after the administration, 1.0 mL of blood samples were drawn from the limb veins and placed in an EDTAK2 centrifuge tube. Centrifugation was carried out at 5000 rpm at 4° C. for 10 min, and the plasma was collected. The blood collection time points for the intravenous group and intragastric administration group were: 0 min, 5 min, 15 min, 30 min, 1 h, 2 h, 4 h, 6 h, 8 h, 10 h, 12 h, 24 h, and 48 h. Before analysis and detection, all samples were stored at −80° C., and a quantitative analysis of samples was performed using LC-MS/MS.

[4] = Pharmacokinetic test in mice; format: in vivo, C57 mice; details: for AUC(0-t) / clearance / Vd: male, C57, mouse, plasma; for Vd: read-out: Vdss
Experimental: 1.1 Experimental animals: Male C57 mice, 20-25 g, 6 mice/compound. Purchased from Chengdu Ddossy Experimental Animals Co., Ltd.
1.2 Experimental design: On the day of the experiment, 24 C57 mice were randomly grouped according to their body weight. The animals were fasted with water available for 12 to 14 h one day before the administration and were fed 4 h after the administration.
as §1, with “0.06 mL” for “0.15 ml”, “intravenous” for “intravenous administration”, “0 min,” for “0,”, “7” for “6 h, 8”

Structure (SMILES): Cc1nc(N2CC(C3CN(C4CC(C)(C(=O)O)C4)CCO3)C2)nc(NC(C)c2ccc(Cl)cc2Cl)c1Cl (single isomer, unassigned) [Compound 9 isomer 3]
F ([1]; i.g. 10 mg/kg): 98.7 ± 19% | AUC ([1]; iv, i.v. 2.5 mg/kg): 6280 ± 402 ng·h/mL | clearance ([1]; iv, i.v. 2.5 mg/kg): 6.61 ± 0.42 mL/min/kg | Vd ([1]; iv, i.v. 2.5 mg/kg): 1.49 ± 0.13 L/kg | AUC ([1]; po, i.g. 10 mg/kg): 24800 ± 4810 ng·h/mL | IC50 [2]: < 100 nM | F ([3]; i.g. 5 mg/kg): 72.8 ± 57% | AUC(0-t) ([3]; iv, i.v. 1 mg/kg): 6930 ± 1440 ng·h/mL | clearance ([3]; iv, i.v. 1 mg/kg): 2.44 ± 0.51 mL/min/kg | Vd ([3]; iv, i.v. 1 mg/kg): 0.995 ± 0.088 L/kg | AUC(0-t) ([3]; po, i.g. 5 mg/kg): 25200 ± 19900 ng·h/mL

Structure (SMILES): Cc1nc(N2CC(F)(C3CN(C4CC(C)(C(=O)O)C4)CCO3)C2)nc(N[C@H](C)c2ccc(Cl)cc2Cl)c1Cl (single isomer, unassigned) [Compound 64 isomer 3]
F ([1]; i.g. 10 mg/kg): 108 ± 21% | AUC ([1]; iv, i.v. 2.5 mg/kg): 6020 ± 1390 ng·h/mL | clearance ([1]; iv, i.v. 2.5 mg/kg): 6.85 ± 1.2 mL/min/kg | Vd ([1]; iv, i.v. 2.5 mg/kg): 1.38 ± 0.25 L/kg | AUC ([1]; po, i.g. 10 mg/kg): 26100 ± 5150 ng·h/mL | F ([4]; i.g. 10 mg/kg): 118 ± 4.5% | AUC(0-t) ([4]; iv, i.v. 2.5 mg/kg): 4490 ± 361 ng·h/mL | clearance ([4]; iv, i.v. 2.5 mg/kg): 9.26 ± 0.73 mL/min/kg | Vd ([4]; iv, i.v. 2.5 mg/kg): 1.94 ± 0.053 L/kg | AUC(0-t) ([4]; po, i.g. 10 mg/kg): 21200 ± 815 ng·h/mL | IC50 [2]: < 100 nM

Structure (SMILES): Cc1nc(N2CCC(C3CN(CCC(=O)O)CCO3)CC2)nc(NC(C)c2ccc(Cl)cc2Cl)c1Cl (single isomer, unassigned) [Compound 76 isomer 2]
F ([4]; i.g. 10 mg/kg): 123 ± 14% | AUC(0-t) ([4]; iv, i.v. 2.5 mg/kg): 1790 ± 125 ng·h/mL | clearance ([4]; iv, i.v. 2.5 mg/kg): 23.1 ± 1.7 mL/min/kg | Vd ([4]; iv, i.v. 2.5 mg/kg): 1.44 ± 0.12 L/kg | AUC(0-t) ([4]; po, i.g. 10 mg/kg): 8840 ± 1010 ng·h/mL | IC50 [2]: < 100 nM

Structure (SMILES): Cc1nc(N2CC3C(C2)C3C2CN(C3CC(C)(C(=O)O)C3)CCO2)nc(NC(C)c2ccc(Cl)cc2Cl)c1Cl (single isomer, unassigned) [Compound 78 isomer 3]
F ([1]; i.g. 10 mg/kg): >98% | AUC ([1]; iv, i.v. 2.5 mg/kg): 4560 ± 638 ng·h/mL | clearance ([1]; iv, i.v. 2.5 mg/kg): 9.22 ± 1.2 mL/min/kg | Vd ([1]; iv, i.v. 2.5 mg/kg): 2.07 ± 0.28 L/kg | AUC ([1]; po, i.g. 10 mg/kg): 28400 ± 7070 ng·h/mL | IC50 [2]: < 100 nM

Structure (SMILES): C[C@@H](Nc1cc(N2CC(C3CN(C4CC(C)(C(=O)O)C4)CCO3)C2)ccc1Cl)c1ccc(Cl)cc1Cl (single isomer, unassigned) [Compound 83 isomer 1]
F ([1]; i.g. 10 mg/kg): >98% | AUC ([1]; iv, i.v. 2.5 mg/kg): 7320 ± 1280 ng·h/mL | clearance ([1]; iv, i.v. 2.5 mg/kg): 5.53 ± 1 mL/min/kg | Vd ([1]; iv, i.v. 2.5 mg/kg): 2.25 ± 0.27 L/kg | AUC ([1]; po, i.g. 10 mg/kg): 37000 ± 2820 ng·h/mL | F ([4]; i.g. 10 mg/kg): 91.6 ± 12% | AUC(0-t) ([4]; iv, i.v. 2.5 mg/kg): 7250 ± 726 ng·h/mL | clearance ([4]; iv, i.v. 2.5 mg/kg): 5.69 ± 0.6 mL/min/kg | Vd ([4]; iv, i.v. 2.5 mg/kg): 1.77 ± 0.069 L/kg | AUC(0-t) ([4]; po, i.g. 10 mg/kg): 26600 ± 3520 ng·h/mL | IC50 [2]: < 100 nM | F ([3]; i.g. 5 mg/kg): 76.8 ± 27% | AUC(0-t) ([3]; iv, i.v. 1 mg/kg): 15800 ± 1740 ng·h/mL | clearance ([3]; iv, i.v. 1 mg/kg): 1.02 ± 0.14 mL/min/kg | Vd ([3]; iv, i.v. 1 mg/kg): 0.754 ± 0.15 L/kg | AUC(0-t) ([3]; po, i.g. 5 mg/kg): 60700 ± 21600 ng·h/mL

Structure (SMILES): C#Cc1ccc(C(C)Nc2cc(N3CC([C@H]4CCCN([C@H]5C[C@](C)(C(=O)O)C5)C4)C3)nc3ccnn23)c(Cl)c1 (some centres unmarked) [Compound 22]
IC50 [2]: < 100 nM

Structure (SMILES): C[C@@H](Nc1cc(N2CC([C@H]3CCCN([C@H]4C[C@](C)(C(=O)O)C4)C3)C2)n2nccc2n1)c1ccc(Cl)cc1Cl [Compound 25]
IC50 [2]: < 100 nM

Structure (SMILES): C[C@@H](Nc1nc(N2CC([C@H]3CCCN([C@H]4C[C@](C)(C(=O)O)C4)C3)C2)c2sccc2n1)c1ccc(Cl)cc1Cl [Compound 33]
IC50 [2]: < 100 nM

Structure (SMILES): C[C@@H](Nc1nc2c(c(N3CC([C@H]4CCCN([C@H]5C[C@](C)(C(=O)O)C5)C4)C3)n1)CCC2)c1ccc(Cl)cc1Cl [Compound 34]
IC50 [2]: 100 to 500 nM

Second part, the compound after the results:

IC50 [2]: < 100 nM
Structure (SMILES): C#Cc1ccc(C(C)Nc2cc(N3CC([C@H]4CCCN([C@H]5C[C@](C)(C(=O)O)C5)C4)C3)ncn2)c(Cl)c1 (some centres unmarked) [Compound 23]

IC50 [2]: < 100 nM
Structure (SMILES): C[C@@H](Nc1cc(N2CC([C@H]3CCCN(CCO)C3)C2)nc2ccnn12)c1ccc(Cl)cc1Cl [Compound 24]

IC50 [2]: < 100 nM
Structure (SMILES): Cc1nc(N[C@H](C)c2ccc(Cl)cc2Cl)cc(N2CC([C@H]3CCCN([C@H]4C[C@](C)(C(=O)O)C4)C3)C2)n1 [Compound 26]

IC50 [2]: < 100 nM
Structure (SMILES): C[C@@H](Nc1cc(N2CC([C@H]3CCCN(CCO)C3)C2)ncn1)c1ccc(Cl)cc1Cl [Compound 27]

IC50 [2]: < 100 nM
Structure (SMILES): Cc1nc(N2CC([C@@H]3CN(CCO)CCO3)C2)nc(N[C@H](C)c2ccc(Cl)cc2Cl)c1Cl [Compound 31]
